According to PubChem BioAssay (NCI):
“And” between values parts separate entries of the source, which are not always exact repeats. Equal values may be shown once.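 In this assay, cells in 96-well plates receive the compound at five concentrations for 48 hours. Endpoints are linearly interpolated between the surrounding concentrations. GI50 is the concentration that inhibits growth by half. TGI: total growth inhibition.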

Tests used:
Test in all cases: NCI anticancer screen, dose series, 48 h
EKVX NSCLC = system: EKVX NSCLC
786-0 renal = system: 786-0 renal
NCI-H226 lung = system: NCI-H226 lung
SNB-75 CNS = system: SNB-75 CNS
BT-549 breast = system: BT-549 breast
HCC-2998 colon = system: HCC-2998 colon
SF-295 CNS = system: SF-295 CNS
K-562 leukemia = system: K-562 leukemia
ACHN renal = system: ACHN renal
SK-MEL-2 melanoma = system: SK-MEL-2 melanoma

Compound	GI50 (EKVX NSCLC)	TGI (EKVX NSCLC)	GI50 (786-0 renal)	TGI (786-0 renal)	GI50 (NCI-H226 lung)	TGI (NCI-H226 lung) [µM]	GI50 (SNB-75 CNS)	TGI (SNB-75 CNS)	GI50 (BT-549 breast)	TGI (BT-549 breast)	GI50 (HCC-2998 colon)	TGI (HCC-2998 colon) [µM]	GI50 (SF-295 CNS)	TGI (SF-295 CNS)	GI50 (K-562 leukemia) [µM]	TGI (K-562 leukemia) [µM]	GI50 (ACHN renal)	TGI (ACHN renal)	GI50 (SK-MEL-2 melanoma)	TGI (SK-MEL-2 melanoma)
Cn1c(/C(C#N)=C/c2ccc3ccccc3c2)cc2ccccc21	0.471 µM	> 100 µM	0.424 µM	> 100 µM	0.662 µM	> 100	0.0628 µM	> 92.7 µM	0.474 µM	> 100 µM	0.324 µM	> 100	0.11 µM	0.463 µM	0.0455	> 100	0.125 µM	> 100 µM	6.28 µM	> 100 µM
C=CCO/N=C/c1cc(NC(=S)c2ccoc2C)ccc1Cl	–	29.2 µM	–	> 100 µM	–	41.3	–	38.2 µM	–	34.7 µM	–	24	–	26.6 µM	–	–	–	19.4 µM	–	28 µM
CC(=O)N[C@H](C(=O)N[C@@H](CCCNC(=N)N)C(=O)N[C@@H](CCCCN)C(=O)N[C@@H](CCCNC(=N)N)C(=O)N[C@]1(C)CCCCCC/C=C\CCC[C@@](C)(C(=O)N[C@@H](CCCNC(=N)N)C(=O)N[C@@H](CCC(=O)O)C(=O)N[C@@H](CC(C)C)C(=O)N[C@H](C(=O)N[C@@H](CCC(=O)O)C(N)=O)C(C)C)NC(=O)[C@H](CCC(N)=O)NC(=O)[C@H](CC(C)C)NC(=O)[C@H](CC(C)C)NC(=O)[C@H](CCCNC(=N)N)NC(=O)[C@H](CCCNC(=N)N)NC(=O)[C@H](CC(C)C)NC1=O)C(C)C	1.75 µM	23.2 µM	1.24 µM	2.91 µM	2.43 µM	28.7	1.99 µM	13.1 µM	1.44 µM	4.35 µM	4.65 µM	46.6	4.4 µM	30.1 µM	5.42	21.6	8.06 µM	28.1 µM	7.59 µM	> 50 µM
Cn1cc(-c2csc(-c3cn(C)c4ccccc34)n2)c2cnccc21	1.56 µM	3.39 µM	1.95 µM	3.53 µM	–	–	4.08 µM	16.9 µM	1.68 µM	3.09 µM	1.26 µM	2.6	1.63 µM	3.07 µM	–	–	1.8 µM	3.19 µM	2 µM	3.7 µM
CC1(C)CC[C@H](C2=CC(=O)c3c(O)ccc(O)c3C2=O)O1	4.7 µM and 1.48 µM and 1.35 µM	11.8 µM and 3.03 µM and 3.95 µM	0.829 µM and 1.28 µM and 0.237 µM	2.07 µM and 2.8 µM and 0.504 µM	5.01 µM and 1.79 µM and 0.611 µM	–	8.53 µM and 2.87 µM and 0.95 µM	27.7 µM and 4.02 µM	0.963 µM and 0.358 µM	2.19 µM and 1.13 µM	–	–	8.48 µM and 2.4 µM and 3.24 µM	22.1 µM and 6.73 µM and 8.11 µM	–	–	1.64 µM and 1.27 µM and 0.252 µM	3.45 µM and 2.55 µM and 0.69 µM	4.34 µM and 1.3 µM and 0.682 µM	8.47 µM and 2.67 µM and 1.56 µM
COCCOCCOCc1n(Cc2ccc3ccccc3n2)c2ccccc2[n+]1Cc1ccc2ccccc2c1	1.27 µM	10.8 µM	1.53 µM	3.04 µM	0.875 µM	4.83	0.312 µM	1.35 µM	0.277 µM	0.977 µM	0.468 µM	2.04	0.804 µM	2.58 µM	0.291	1.7	2.04 µM	5.68 µM	0.376 µM	1.56 µM
C[C@H](Cn1ncnn1)Nc1ncc2cc(Oc3ccc(F)cc3F)c(=O)n(C)c2n1	–	–	> 25 µM	> 25 µM	> 25 µM	> 25	> 25 µM	> 25 µM	> 25 µM	> 25 µM	> 25 µM	> 25	> 25 µM	> 25 µM	> 25	> 25	> 25 µM	> 25 µM	> 25 µM	> 25 µM
CCOC1Oc2ccccc2-c2oc(=O)c(Sc3ccc(C)cc3)cc21 (stereo not given)	42.8 µM	> 100 µM	36.3 µM	> 100 µM	36.8 µM	> 100	32.6 µM	> 100 µM	29.5 µM	> 100 µM	52.2 µM	> 100	19.2 µM	> 100 µM	15.4	> 100	28.8 µM	> 100 µM	49.4 µM	> 100 µM
CC1(C)N=C(N)N=C(N)N1c1ccc(OCC(=O)Nc2ccccc2)c(Cl)c1	35 µM	> 100 µM	11.1 µM	> 100 µM	> 71.6 µM	> 100	> 100 µM	> 100 µM	22.3 µM	> 100 µM	4.99 µM	> 100	0.702 µM	> 100 µM	0.446	> 100	62.9 µM	> 100 µM	> 93.9 µM	> 100 µM
O=C(c1ccc2ccccc2c1)c1c(C(F)(F)F)n([O-])c2ccc(Cl)cc2[n+]1=O	1.74 µM	3.17 µM	1.64 µM	3.09 µM	1.82 µM	3.56	1.3 µM	2.57 µM	1.6 µM	2.99 µM	1.26 µM	2.6	1.66 µM	3.08 µM	1.22	2.65	1.63 µM	2.98 µM	1.74 µM	3.2 µM
O=C1C(SCCO)=C(SCCO)C(=O)c2ccccc21	–	3.08 µM	–	3.91 µM	–	3.38	–	2.57 µM	–	2.89 µM	–	3.42	–	2.97 µM	–	3.87	–	2.26 µM	–	4.24 µM
CCC1=C[C@@H]2CN(C1)Cc1c([nH]c3ccccc13)[C@@](C(=O)OC)(c1cc3c(cc1OC)N(C)[C@H]1[C@@](O)(C(=O)OC)[C@H](OC(C)=O)[C@]4(CC)[C@@H]5C[C@@H]5CN5CC[C@]31[C@@H]54)C2	–	–	< 0.005 µM and 0.0139 µM	1.58 µM and 14.2 µM	0.0191 µM	6.57	–	11 µM	–	3.46 µM and 17.5 µM	< 0.005 µM and 0.0211 µM	–	< 0.005 µM	< 0.005 µM and 0.011 µM	< 0.005	–	0.0191 µM and 0.168 µM	7.79 µM and 26.2 µM	< 0.005 µM	2.07 µM
O=C1c2cccnc2-c2nc(-c3ccncc3)cc3c2c1nc1ccccc13	24.3 µM	> 100 µM	15 µM	39.9 µM	10.9 µM	22.8	13.1 µM	25.8 µM	24.6 µM	62.1 µM	–	–	15.1 µM	28.4 µM	15.4	> 100	12.1 µM	24.4 µM	> 100 µM	> 100 µM
